Assay results taken from US8143244B2, “Cyclopropyl fused indolobenzazepine HCV NS5B inhibitors” (Bristol-Myers Squibb Company, priority 2009, dated 2012).

Columns and labels:
[1] = target: T1, HCV NS5B (Hepatitis C virus genotype 1b, UniProt Q9WMX2); experiment: HCV NS5B RdRp enzyme assay; format: biochemical; conditions: Table 1; HCV NS5B RdRp genotype 1b
T1 construct: The protein was expressed with an 18 amino acid C-terminal truncation to enhance the solubility; made in house; host or cells: E. coli BL21(DE3)
T1 sequence (Q9WMX2 2420-2992): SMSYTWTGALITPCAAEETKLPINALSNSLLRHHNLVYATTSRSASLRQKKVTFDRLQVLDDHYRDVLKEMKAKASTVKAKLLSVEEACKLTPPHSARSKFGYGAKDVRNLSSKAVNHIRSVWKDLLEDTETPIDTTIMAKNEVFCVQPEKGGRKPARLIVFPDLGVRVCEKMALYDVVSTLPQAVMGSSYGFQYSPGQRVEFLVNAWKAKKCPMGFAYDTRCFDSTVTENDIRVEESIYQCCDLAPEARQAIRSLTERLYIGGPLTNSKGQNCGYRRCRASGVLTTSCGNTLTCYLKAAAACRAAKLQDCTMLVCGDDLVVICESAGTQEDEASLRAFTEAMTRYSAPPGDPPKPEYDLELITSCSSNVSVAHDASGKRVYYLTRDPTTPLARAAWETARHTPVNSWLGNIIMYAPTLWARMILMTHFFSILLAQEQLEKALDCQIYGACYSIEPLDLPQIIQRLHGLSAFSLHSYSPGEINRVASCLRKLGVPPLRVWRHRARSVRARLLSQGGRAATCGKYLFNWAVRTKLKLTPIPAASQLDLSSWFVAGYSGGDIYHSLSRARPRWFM
Method: HCV NS5B RdRp cloning, expression, and purification. The cDNA encoding the NS5B protein of HCV, genotype 1b, was cloned into the pET21a expression vector. The protein was expressed with an 18 amino acid C-terminal truncation to enhance the solubility. The E. coli competent cell line BL21(DE3) was used for expression of the protein. Cultures were grown at 37° C. for ˜4 hours until the cultures reached an optical density of 2.0 at 600 nm. The cultures were cooled to 20° C. and induced with 1 mM IPTG. Fresh ampicillin was added to a final concentration of 50 μg/ml and the cells were grown overnight at 20° C.
Cell pellets (3L) were lysed for purification to yield 15-24 mgs of purified NS5B. The lysis buffer consisted of 20 mM Tris-HCl, pH 7.4, 500 mM NaCl, 0.5% triton X-100, 1 mM DTT, 1 mM EDTA, 20% glycerol, 0.5 mg/ml lysozyme, 10 mM MgCl2, 15 ug/ml deoxyribonuclease I, and Complete TM protease inhibitor tablets (Roche). After addition of the lysis buffer, frozen cell pellets were resuspended using a tissue homogenizer. To reduce the viscosity of the sample, aliquots of the lysate were sonicated on ice using a microtip attached to a Branson sonicator. The sonicated lysate was centrifuged at 100,000×g for 1 hr at 4° C. and filtered through a 0.2 μm filter unit (Corning).
The protein was purified using three sequential chromatography steps: Heparin sepharose CL-6B, polyU sepharose 4B, and Hitrap SP sepharose (Pharmacia). The chromatography buffers were identical to the lysis buffer but contained no lysozyme, deoxyribonuclease I, MgCl2 or protease inhibitor and the NaCl concentration of the buffer was adjusted according to the requirements for charging the protein onto the column. Each column was eluted with a NaCl gradient which varied in length from 5-50 column volumes depending on the column type. After the final chromatography step, the resulting purity of the enzyme is >90% based on SDS-PAGE analysis. The enzyme was aliquoted and stored at −80° C.
Standard HCV NS5B RdRp enzyme assay. HCV RdRp genotype 1b assays were run in a final volume of 60 μl in 96 well plates (Costar 3912). The assay buffer is composed of 20 mM Hepes, pH 7.5, 2.5 mM KCl, 2.5 mM MgCl2, 1 mM DTT, 1.6 U RNAse inhibitor (Promega N2515), 0.1 mg/ml BSA (Promega R3961), and 2% glycerol. All compounds were serially diluted (3-fold) in DMSO and diluted further in water such that the final concentration of DMSO in the assay was 2%. HCV RdRp genotype 1b enzyme was used at a final concentration of 28 nM. A polyA template was used at 6 nM, and a biotinylated oligo-dT12 primer was used at 180 nM final concentration. Template was obtained commercially (Amersham 27-4110). Biotinylated primer was prepared by Sigma Genosys. 3H-UTP was used at 0.6 μCi (0.29 μM total UTP). Reactions were initiated by the addition of enzyme, incubated at 30° C. for 60 min, and stopped by adding 25 μl of 50 mM EDTA containing SPA beads (4 μg/μl, Amersham RPNQ 0007). Plates were read on a Packard Top Count NXT after >1 hr incubation at room temperature.
Modified HCV NS5B RdRp enzyme assay. A modified enzyme assay was performed essentially as described for the standard enzyme assay except for the following: The biotinylated oligo dT12 primer was precaptured on streptavidin-coated SPA beads by mixing primer and beads in assay buffer and incubating at room temperature for one hour. Unbound primer was removed after centrifugation. The primer-bound beads were resuspended in 20 mM Hepes buffer, pH 7.5 and used in the assay at final concentrations of 20 nM primer and 0.67 μg/μl beads. Order of addition in the assay: enzyme (14 nM) was added to diluted compound followed by the addition of a mixture of template (0.2 nM), 3H-UTP (0.6 μCi, 0.29 μM), and primer-bound beads, to initiate the reaction; concentrations given are final. Reactions were allowed to proceed for 4 hours at 30° C.
IC50 values for compounds were determined using seven different [I]. […]

[2] = system: HCV replicon; experiment: HCV Replicon Luciferase Reporter Assay (LE Assay); format: cell-based, HCV genotype 1b; conditions: Hepatitis C virus, genotype 1b, Huh-7, read-out: LE NeoLuc EC50, Table 1, HUH-7 cells, genotype 1b replicon
Method: (§1) The HCV replicon luciferase assay was developed to monitor the inhibitory effects of compounds described in the disclosure on HCV viral replication. Utilization of a replicon luciferase reporter assay was first described by Krieger et al (Krieger N, Lohmann V, and Bartenschlager R, J. Virol. 75(10):4614-4624 (2001)). HUH-7 cells, constitutively expressing the HCV replicon, were grown in Dulbeccors Modified Eagle Media (DMEM) (Gibco-BRL) containing 10% Fetal calf serum (FCS) (Sigma) and 1 mg/ml G418 (Gibco-BRL). Compounds were serially diluted 3 folds in DMSO for a twenty-point titration and subsequently transferred to sterile 384-well tissue-culture treated plates (Coming cat #3571). The plates were then seeded with 50 μl of cells at a density of 3.0×10^3 cells/well in DMEM containing 4% FCS (final DMSO concentration at 0.5%). After 3 days incubation at 37° C., cells were analyzed for Renilla Luciferase activity using the EnduRen as substrate (Promega cat #E6485). The EnduRen substrate was diluted in DMEM and then added to the plates to a final concentration of 7.5 μM. The plates were incubated for 2 hrs at 37° C. and then read immediately for 30 seconds with Viewlux Imager (PerkinElmer) using a luminescence program. To assess cytotoxicity of compounds, CC50 values were generated by multiplexing the EnduRen-containing plates with Cell Titer-Blue (Promega, cat #G8082). 3 μl of Cell-Titer Blue was added to each well and incubated for 8 hrs at 37° C. The fluorescence signal from each well was read, with an excitation wavelength at 525/10 nm and an emission wavelength of 598/10 nm, using the Viewlux Imager.

[3] = system: HCV replicon genotype 1a; experiment: HCV Replicon Luciferase Reporter Assay (LE Assay), genotype 1a replicon; format: cell-based, HCV genotype 1a; conditions: Hepatitis C virus, read-out: LE NeoLuc EC50
Method: as §1

Row | Structure (SMILES) | IC50 [1] | EC50 [2] | EC50 [3]
1 | COc1ccc2c(c1)[C@@H]1C[C@]1(C(=O)N1CC34CCCC3(CN(C)C4)C1)Cn1c-2c(C2CCCCC2)c2ccc(C(=O)NS(=O)(=O)C(C)C)cc21 (some centres unmarked) | 1.9 to 500 nM | 1.9 to 500 nM | –
2 | COc1ccc2c(c1)C=C(C(=O)N1CC34COCC3(C1)N(C(C)=O)C4)Cn1c-2c(C2CCCCC2)c2ccc(C(=O)NS(=O)(=O)C(C)C)cc21 (centres unmarked) | 1.9 to 500 nM | 1.9 to 500 nM | –
3 | COc1ccc2c(c1)[C@@H]1C[C@]1(C(=O)N1CC34CCC3(C1)N(C(C)=O)C4)Cn1c-2c(C2CCCCC2)c2ccc(C(=O)NS(=O)(=O)C(C)C)cc21 (some centres unmarked) | 1.9 to 500 nM | 1.9 to 500 nM | –
4 | COc1ccc2c(c1)[C@@H]1C[C@]1(C(=O)N1CC34COCC3(C1)CN(S(=O)(=O)C(C)C)C4)Cn1c-2c(C2CCCCC2)c2ccc(C(=O)NS(=O)(=O)C(C)C)cc21 (some centres unmarked) | 1.9 to 500 nM | – | 1.9 to 500 nM
5 | COc1ccc2c(c1)[C@@H]1C[C@]1(C(=O)N1CC34CCC3(CN(C(=O)N(C(C)C)C(C)C)C4)C1)Cn1c-2c(C2CCCCC2)c2ccc(C(=O)NS(=O)(=O)C(C)C)cc21 (some centres unmarked) | 1.9 to 500 nM | – | 1.9 to 500 nM
6 | COc1ccc2c(c1)[C@@H]1C[C@]1(C(=O)N1CC34COCC3(CN(CC(F)(F)F)C4)C1)Cn1c-2c(C2CCCCC2)c2ccc(C(=O)NS(=O)(=O)C(C)C)cc21 (some centres unmarked) | 1.9 to 500 nM | – | 1.9 to 500 nM
7 | COc1ccc2c(c1)[C@@H]1C[C@]1(C(=O)N1CC34COCC3(CN(CC(F)(F)F)C4)C1)Cn1c-2c(C2CCCCC2)c2ccc(C(=O)NS(=O)(=O)N(C)C)cc21 (some centres unmarked) | 1.9 to 500 nM | – | 1.9 to 500 nM
8 | COc1ccc2c(c1)[C@@H]1C[C@]1(C(=O)N1CC34COCC3(C1)CN(S(=O)(=O)C(C)C)C4)Cn1c-2c(C2CCCCC2)c2ccc(C(=O)NS(=O)(=O)N(C)C)cc21 (some centres unmarked) | < 1.7 nM | – | 1.9 to 500 nM
9 | COc1ccc2c(c1)[C@@H]1C[C@]1(C(=O)N1CC34CCC3(CN(C(=O)N(C)C)C4)C1)Cn1c-2c(C2CCCCC2)c2ccc(C(=O)NS(=O)(=O)C(C)C)cc21 (some centres unmarked) | 1.9 to 500 nM | – | 1.9 to 500 nM
10 | COc1ccc2c(c1)[C@@H]1C[C@]1(C(=O)N1CC34CCC3(CN(C(=O)N3CCCC3)C4)C1)Cn1c-2c(C2CCCCC2)c2ccc(C(=O)NS(=O)(=O)C(C)C)cc21 (some centres unmarked) | 1.9 to 500 nM | – | 1.9 to 500 nM
11 | COc1ccc2c(c1)[C@@H]1C[C@]1(C(=O)N1CC34CCC3(CN(C(=O)N3CCOCC3)C4)C1)Cn1c-2c(C2CCCCC2)c2ccc(C(=O)NS(=O)(=O)C(C)C)cc21 (some centres unmarked) | 1.9 to 500 nM | – | 1.9 to 500 nM
12 | COc1ccc2c(c1)[C@@H]1C[C@]1(C(=O)N1CC34CCC3(CN(C(=O)N(C(C)C)C(C)C)C4)C1)Cn1c-2c(C2CCCCC2)c2ccc(C(=O)NS(=O)(=O)N(C)C)cc21 (some centres unmarked) | 1.9 to 500 nM | – | 1.9 to 500 nM
13 | COc1ccc2c(c1)[C@@H]1C[C@]1(C(=O)N1CC34CCC3(CN(C(=O)N3CCCC3)C4)C1)Cn1c-2c(C2CCCCC2)c2ccc(C(=O)NS(=O)(=O)N(C)C)cc21 (some centres unmarked) | 1.9 to 500 nM | – | 1.9 to 500 nM
